“Also recorded” adds a separate entry of the source.
Experiments:
[1] = tested on: rat liver; test: Histologic severity of I/R injury, Banff criteria; set-up: species or system Sprague Dawley (SD) rats; settings: CO, scale 1-4
Text: Histology. Liver specimens were fixed in a 10% buffered formalin solution and embedded in paraffin. Sections were made at 4 μm and stained with H&E. The histologic severity of I/R injury was graded using International Banff Criteria (Int'l Banff Schema Conference Worksheet, The Third Int'l Banff Conference on Allograft Pathology, June 21-25 (1995)). Using these criteria, lobular disarray and ballooning changes are graded from 1-4, where no change is given a score of 1 and severe disarray or ballooning changes are given a score of 4.

[2] = tested on: iNOS; test: Western blot of liver samples, iNOS; set-up: species or system rat; settings: 2 h reperfusion
Procedure: (§1) Western blots. Protein was extracted from liver samples with PBSTDS buffer (50 mM Tris, 150 mM NaCl, 0.1% SDS, 1% sodium deoxycholate, and 1% triton X-100, pH 7.2). Proteins (30 μg/sample) in SDS-loading buffer (50 mM Tris, pH 7.6, 10% glycerol, 1% SDS) were subjected to 12% SDS-polyacrylamide gel electrophoresis and transferred to nitrocellulose membrane (Bio-Rad, Hercules, Calif.). The gel was stained with coomassie blue to document equal protein loading. The membrane was blocked with 3% dry milk and 0.1% Tween 20 (USB, Cleveland, Ohio) in PBS and incubated with rabbit anti-rat HO-1 or iNOS polyclonal Abs (SangStat, Fremont, Calif.). Relative protein quantities were determined using a densitometer (Kodak Digital Science 1D Analysis Software, Rochester, N.Y.).

[3] = tested on: aortic allografts; test: Immunohistology of aortic grafts: activation markers and cytokines; assay type: in vivo, rat; set-up: key: −: not present; +: low; ++: moderate; +++: frequent
Procedure: Immunohistological analysis. Immunohistology was performed on cryostat sections as previously described in detail. Guillot et al., J. Immunol. 164:5258-68 (2000). Immunohistological analysis of infiltrating leukocytes was performed at day 30 after transplantation using the following mouse Mab: a mixture of two anti-leukocyte CD45 Mabs (OX1 AND OX30), anti-monocyte/macrophage CD68 (ED1), anti-αβ TCR (R.7.3), anti-CD4 (W3/25), anti-CD8 α chain (OX8), anti-monomorphic class II MHC antigens (OX6), anti-CD25 (OX39) (all from ECACC, Wiltshire, UK), anti-CD54 (ICAM-1) (Seikagaku America Inc., Rockville, Mass.), anti-CD86 (B7.2) (Pharmingen, Franklin Lakes, N.J.) and an irrelevant mouse Mab (3G8, anti-human CD16). VSMCs were detected using a mouse anti-α human smooth muscle actin Mab (Sigma, St. Louis, Mo.). Slides were then incubated with a biotin-conjugated anti-mouse immunoglobulin antibody (Vector Laboratories, Burlingame, Calif.), followed by HRP-conjugated streptavidin (Vector Laboratories) and VIP substrate. IFNγ expression was analyzed using a hamster Mab (Genzyme, Cambridge, Mass.). The IP10 chemiokine was detected using a goat anti-IP10 antibody (Santa Cruz, Santa Cruz, Calif.). Rabbit antibodies were used to detect iNOS (Transduction Laboratories, Lexington, Ky.), HO-1 (Stressgen) and TGFβ1 (Promega, Madison, Wis.). Biotin-conjugated anti-hamster, anti-goat and anti-rabbit antibodies were from Jackson Immunoresearch. Binding of these antibodies was detected by incubation with HRP-conjugated streptavidin and VIP substrate. Tissue sections were counterstained with hematoxylin and lithium carbonate.

[4] = tested on: HO-1; test: Western blot of liver samples, HO-1; set-up: species or system rat; settings: 2 h after perfusion
Procedure: as §1

[5] = tested on: LEW rats transplanted with DA livers; test: Allogeneic orthotopic liver transplant (OLT) model: survival, histology, sGOT; assay type: in vivo, rat
Procedure: Ad-HO-1 transduction in OLT model. Male Dark-Agouti (DA; RT1^3) and Lewis (LEW; RT1′) rats of 10-16 weeks of age were purchased from Harlan Sprague Dawley, Inc. (San Diego, Calif.), and maintained under conditions approved by the UCLA Chancellor's Animal Research Committee (CARC). All animals were housed in microisolator cages in a virus free facility and fed laboratory chow ad libitum. Orthotopic liver transplants were performed between DA donors and LEW rat recipients, as described previously. Amersi et al., supra; Kato et al., Am. J. Transplant 1:121-28 (2001). Ex-vivo gene transfer into liver grafts was performed during cold preservation (4° C.) via perfusion of the portal vein with 2 ml of cold lactated Ringer's solution containing 5×10^10 pfu (plaque-forming unit) of Ad-HO-1. Control grafts were perfused with 5×10^10 pfu of Ad-β-gal. Animals were followed for survival. Separate groups of recipients were sacrificed at day 3, 7 and 10 post-transplant, OLTs were harvested for histological evaluation, whereas blood samples were collected for measurement of sGOT levels.
Methylene chloride treatment in OLT model To investigate whether CO represents a functional downstream HO-1 mediator in this system, methylene chloride was used as a carbon monoxide generator. As indicated above, the metabolism of MC is known to result in the exclusive production of CO2 and CO. Gargas et al., supra. LEW rats transplanted with DA livers were fed with methylene chloride (500 mg/kg) 2 hr prior to the transplant, followed by a 2-week post-transplant course (500 mg/kg/day). The blood CoHb levels in experimental animals were measured at day 0, 5, and 10. Animal survival was screened and OLTs were analyzed histologically.
Histology. Liver allografts were harvested at day 3, 7 and 10 post-transplant. The tissue was sliced into small pieces, preserved in 10% neutral-buffered formalin, cut into 5-μm section, and stained with hematoxylin and eosin (H&E) by standard methods.

[C-]#[O+] [CO, carbon monoxide] was tested, and the “Banff score of I/R injury” value ([1]; 1 h reperfusion) was 1.2±0.31, the “Banff score of I/R injury” value ([1]; 2 h reperfusion) was 2.0±0.12 and the “iNOS expression (Western blot)” value [2] was “no detectable bands”. The “CD54 (ICAM-1)” value ([3]; adventitia) was “+++”, the “CD86 (B7.2)” value ([3]; adventitia) was “+” and the INOS ([3]; adventitia) was “+++”. For the same compound, the IP10 ([3]; adventitia) was “+”, the MHC-II ([3]; adventitia) was “++” and the TGFβ ([3]; adventitia) was “++”. For the same compound, the “CD54 (ICAM-1)” value ([3]; intima) was “++”, the “CD86 (B7.2)” value ([3]; intima) was “+” and the INOS ([3]; intima) was “++”. For the same compound, the IP10 ([3]; intima) was “+”, the MHC-II ([3]; intima) was “++” and the TGFβ ([3]; intima) was “+”. For the same compound, the “CD54 (ICAM-1)” value ([3]; media) was “−”, the “CD86 (B7.2)” value ([3]; media) was “−” and the INOS ([3]; media) was “++”. The IP10 ([3]; media) was “+”, the MHC-II ([3]; media) was “−” and the TGFβ ([3]; media) was “+”. For the same compound, the “HO-1 protein accentuated (Western blot) vs air alone” value [4] was “ca. 3 fold”.
ClCCl [methylene chloride] was tested, and the “hepatic parenchyma viable / preserved” value ([5]; OLT by day 10 post-transplant) was “more than 80%”, the “histological grade of rejection” value ([5]; OLT by day 10 post-transplant) was “mild to moderate rejection” and the “recipients/livers surviving >120 days” value ([5]; allogeneic OLT) was “two out of seven”. For the same compound, the “mean survival time [MST]±SD” value ([5]; allogeneic OLT, vectors 5×10^10 pfu ex vivo perfusion, methylene chloride 500 mg/kg/day × 14 days) was over 47 ± 46 days, the “rat recipients surviving >3 weeks” value ([5]; daily feedings with methylene chloride alone) was “ca. 50%” and the tolerability of regimen ([5]; methylene chloride 500 mg/kg/day × 14 days, OLT recipients) was “well tolerated and no side effects were noted; also recorded: well tolerated”. The “Mean (days) recipient survival” value ([5]; treatment protocol as in Table 1) was over 47 days.

From US20040143025A1, “Carbon monoxide generating compunds for treatment of vascular, inflammatory and immune disorders” (priority 2002, published 2004)
